Measurements published in the NIST ThermoML archive (doi:10.1021/acs.jced.5b00806).
± gives the expanded uncertainty stated by the source.

What was measured:
[1] = wn = mass fraction of the nth substance listed; conditions: 98 kPa, Liquid, Capillary tube (Ostwald / Ubbelohde) method
[2] = 101.33 kPa, Liquid, Pycnometric method
[3] = xn = mol fraction of the nth substance listed; conditions: 98 kPa, Liquid, magnetic suspension balance, x2 = 0.55

CCOCCOCCOS(=O)(=O)[O-].CCn1cc[n+](C)c1 [1-ethyl-3-methylimidazolium 2-(2-ethoxyethoxy)ethylsulfate] + O
kinematic viscosity [m2/s], [1]
Conditions | w2 = 0.0019 | w2 = 0.0085 | w2 = 0.0195 | w2 = 0.0251 | w2 = 0.0353 | w2 = 0.0495 | w2 = 0.0569 | w2 = 0.0663
303.2 K | 0.000128 ± 6.2e-06 | 0.000103 ± 5e-06 | 7.64e-05 ± 3.7e-06 | 6.69e-05 ± 3.3e-06 | 5.26e-05 ± 2.7e-06 | 4.17e-05 ± 2.3e-06 | 3.84e-05 ± 2.2e-06 | 3.34e-05 ± 2.1e-06
313.2 K | 7.46e-05 ± 4e-06 | 6.17e-05 ± 3.2e-06 | 4.74e-05 ± 2.6e-06 | 4.22e-05 ± 2.4e-06 | 3.38e-05 ± 2.1e-06 | 2.73e-05 ± 1.9e-06 | 2.52e-05 ± 1.9e-06 | 2.24e-05 ± 1.8e-06
323.2 K | 4.76e-05 ± 2.7e-06 | 4.02e-05 ± 2.3e-06 | 3.17e-05 ± 2e-06 | 2.83e-05 ± 1.9e-06 | 2.31e-05 ± 1.8e-06 | 1.92e-05 ± 1.7e-06 | 1.76e-05 ± 1.7e-06 | 1.58e-05 ± 1.6e-06
333.2 K | 3.23e-05 ± 2.1e-06 | 2.78e-05 ± 1.9e-06 | 2.23e-05 ± 1.8e-06 | 2.02e-05 ± 1.7e-06 | 1.67e-05 ± 1.7e-06 | 1.41e-05 ± 1.6e-06 | 1.29e-05 ± 1.6e-06 | 1.18e-05 ± 1.6e-06
343.2 K | 2.32e-05 ± 1.8e-06 | 2.02e-05 ± 1.7e-06 | 1.65e-05 ± 1.7e-06 | 1.51e-05 ± 1.6e-06 | 1.26e-05 ± 1.6e-06 | 1.08e-05 ± 1.6e-06 | 9.8e-06 ± 1.6e-06 | 9.1e-06 ± 1.5e-06
353.2 K | 1.81e-05 ± 1.7e-06 | 1.53e-05 ± 1.6e-06 | 1.26e-05 ± 1.6e-06 | 1.17e-05 ± 1.6e-06 | 9.9e-06 ± 1.6e-06 | 8.5e-06 ± 1.5e-06 | 7.8e-06 ± 1.5e-06 | 7.3e-06 ± 1.5e-06
363.2 K | 1.34e-05 ± 1.6e-06 | 1.16e-05 ± 1.6e-06 | 1e-05 ± 1.6e-06 | 9.3e-06 ± 1.6e-06 | 7.9e-06 ± 1.5e-06 | 6.9e-06 ± 1.5e-06 | 6.3e-06 ± 1.5e-06 | 5.9e-06 ± 1.5e-06

CCOS(=O)(=O)[O-].CCn1cc[n+](C)c1 [1-ethyl-3-methylimidazolium ethyl sulfate] + O
kinematic viscosity [m2/s], [1]
Conditions | w2 = 0.0038 | w2 = 0.009 | w2 = 0.0164 | w2 = 0.0239 | w2 = 0.0359 | w2 = 0.0483 | w2 = 0.0563 | w2 = 0.066
303.2 K | 5.5e-05 ± 1.7e-06 | 5.06e-05 ± 1.7e-06 | 4.43e-05 ± 1.7e-06 | 4.03e-05 ± 1.6e-06 | 3.57e-05 ± 1.6e-06 | 3.26e-05 ± 1.6e-06 | 3.13e-05 ± 1.6e-06 | 2.99e-05 ± 1.6e-06
313.2 K | 3.74e-05 ± 1.7e-06 | 3.56e-05 ± 1.6e-06 | 3.11e-05 ± 1.6e-06 | 2.86e-05 ± 1.6e-06 | 2.51e-05 ± 1.5e-06 | 2.3e-05 ± 1.5e-06 | 2.21e-05 ± 1.5e-06 | 2.11e-05 ± 1.5e-06
323.2 K | 2.69e-05 ± 1.6e-06 | 2.63e-05 ± 1.6e-06 | 2.34e-05 ± 1.5e-06 | 2.17e-05 ± 1.5e-06 | 1.99e-05 ± 1.5e-06 | 1.69e-05 ± 1.5e-06 | 1.63e-05 ± 1.5e-06 | 1.55e-05 ± 1.5e-06
333.2 K | 2.01e-05 ± 1.5e-06 | 1.9e-05 ± 1.5e-06 | 1.8e-05 ± 1.5e-06 | 1.67e-05 ± 1.5e-06 | 1.52e-05 ± 1.5e-06 | 1.31e-05 ± 1.5e-06 | 1.24e-05 ± 1.5e-06 | 1.18e-05 ± 1.5e-06
343.2 K | 1.54e-05 ± 1.5e-06 | 1.49e-05 ± 1.5e-06 | 1.41e-05 ± 1.5e-06 | 1.35e-05 ± 1.5e-06 | 1.21e-05 ± 1.5e-06 | 1.05e-05 ± 1.5e-06 | 9.8e-06 ± 1.5e-06 | 9.3e-06 ± 1.5e-06
353.2 K | 1.21e-05 ± 1.5e-06 | 1.17e-05 ± 1.5e-06 | 1.13e-05 ± 1.5e-06 | 1.11e-05 ± 1.5e-06 | 1.01e-05 ± 1.5e-06 | 9e-06 ± 1.5e-06 | 8.1e-06 ± 1.5e-06 | 7.6e-06 ± 1.5e-06
363.2 K | 9.8e-06 ± 1.5e-06 | 9.4e-06 ± 1.5e-06 | 9.1e-06 ± 1.5e-06 | 8.8e-06 ± 1.5e-06 | 8.4e-06 ± 1.5e-06 | 8e-06 ± 1.5e-06 | 7e-06 ± 1.5e-06 | 6.5e-06 ± 1.5e-06

CCn1cc[n+](C)c1.CS(=O)(=O)[O-] [1-ethyl-3-methylimidazolium methanesulfonate]
[2]
Conditions | mass density [kg/m3]
293.2 K | 1244 ± 9
303.2 K | 1237 ± 9
313.2 K | 1230 ± 8
323.2 K | 1223 ± 8
333.2 K | 1217 ± 8
343.2 K | 1212 ± 8
353.2 K | 1205 ± 8
363.2 K | 1198 ± 8

CCn1cc[n+](C)c1.CS(=O)(=O)[O-] [1-ethyl-3-methylimidazolium methanesulfonate] + O
kinematic viscosity [m2/s], [1]
Conditions | w2 = 0.0024 | w2 = 0.0028 | w2 = 0.01 | w2 = 0.0191 | w2 = 0.0254 | w2 = 0.0323 | w2 = 0.0358 | w2 = 0.047 | w2 = 0.0589 | w2 = 0.0615
303.2 K | 9.34e-05 ± 3.5e-06 | 9.45e-05 ± 3.5e-06 | 7.58e-05 ± 2.9e-06 | 6.2e-05 ± 2.4e-06 | 5.53e-05 ± 2.2e-06 | 4.69e-05 ± 2.1e-06 | 4.51e-05 ± 2e-06 | 3.69e-05 ± 1.9e-06 | 3.06e-05 ± 1.7e-06 | 2.95e-05 ± 1.7e-06
313.2 K | 5.57e-05 ± 6.2e-06 | 5.64e-05 ± 7.2e-06 | 4.66e-05 ± 2.1e-06 | 3.91e-05 ± 2e-06 | 3.5e-05 ± 1.9e-06 | 3.06e-05 ± 1.8e-06 | 2.96e-05 ± 1.8e-06 | 2.48e-05 ± 1.7e-06 | 2.09e-05 ± 1.6e-06 | 2.02e-05 ± 1.6e-06
323.2 K | 3.74e-05 ± 3.6e-06 | 3.65e-05 ± 2.1e-06 | 3.23e-05 ± 1.8e-06 | 2.65e-05 ± 1.7e-06 | 2.39e-05 ± 1.7e-06 | 2.1e-05 ± 1.6e-06 | 2.09e-05 ± 1.6e-06 | 1.77e-05 ± 1.6e-06 | 1.49e-05 ± 1.6e-06 | 1.46e-05 ± 1.6e-06
333.2 K | 2.57e-05 ± 1.7e-06 | – | 2.26e-05 ± 1.6e-06 | – | 1.76e-05 ± 1.6e-06 | – | 1.53e-05 ± 1.6e-06 | 1.31e-05 ± 1.5e-06 | – | 1.11e-05 ± 1.5e-06
343.2 K | 1.86e-05 ± 1.6e-06 | – | 1.66e-05 ± 1.6e-06 | – | 1.32e-05 ± 1.5e-06 | – | 1.16e-05 ± 1.5e-06 | 1.01e-05 ± 1.5e-06 | – | 8.5e-06 ± 1.5e-06
353.2 K | 1.39e-05 ± 1.6e-06 | – | 1.24e-05 ± 1.5e-06 | – | 1.02e-05 ± 1.5e-06 | – | 9.1e-06 ± 1.5e-06 | 8e-06 ± 1.5e-06 | – | 6.8e-06 ± 1.5e-06
363.2 K | 1.09e-05 ± 1.5e-06 | – | 9.7e-06 ± 1.5e-06 | – | 8.1e-06 ± 1.5e-06 | – | 7.3e-06 ± 1.5e-06 | 6.5e-06 ± 1.5e-06 | – | 5.6e-06 ± 1.5e-06

[3]
Conditions | binary diffusion coefficient [m2/s]
303.2 K | 2.1e-10
313.2 K | 3.1e-10
333.2 K | 5.35e-10
353.2 K | 8.3e-10
373.2 K | 1.17e-09
